Experiments:
[1] = Oral bioavailability in rat; type: ADME, organism-based; conditions: in vivo
[2] = Aqueous solubility of compound; type: physicochemical
[3] = Apparent permeability across apical to basolateral side in human Caco-2 cells; type: ADME, cell-based
[4] = Terminal half life in po dosed rat; type: ADME, organism-based; conditions: in vivo, read-out: beta t1/2 (converted)
[5] = Terminal half life in po dosed dog; type: ADME, organism-based, Canis lupus familiaris; conditions: in vivo, read-out: beta t1/2 (converted)
[6] = Terminal half life in po dosed human; type: ADME, organism-based; conditions: in vivo, read-out: beta t1/2 (converted)
[7] = Terminal half life in po dosed mouse; type: ADME, organism-based; conditions: in vivo, read-out: beta t1/2 (converted)
[8] = molecular target: GABA-A receptor; anion channel; experiment: Positive allosteric modulator activity at human GABAA receptor measured by [35S]TBPS based functional assay; type: protein-complex assay
[9] = Oral bioavailability in Sprague-Dawley rat at 2 mg/kg; type: ADME, organism-based; conditions: in vivo
[10] = molecular target: T1, Orexin/Hypocretin receptor type 1 (Homo sapiens, UniProt O43613); experiment: Antagonist activity at human OX1R by FLIPR assay
T1 sequence (O43613 whole entry): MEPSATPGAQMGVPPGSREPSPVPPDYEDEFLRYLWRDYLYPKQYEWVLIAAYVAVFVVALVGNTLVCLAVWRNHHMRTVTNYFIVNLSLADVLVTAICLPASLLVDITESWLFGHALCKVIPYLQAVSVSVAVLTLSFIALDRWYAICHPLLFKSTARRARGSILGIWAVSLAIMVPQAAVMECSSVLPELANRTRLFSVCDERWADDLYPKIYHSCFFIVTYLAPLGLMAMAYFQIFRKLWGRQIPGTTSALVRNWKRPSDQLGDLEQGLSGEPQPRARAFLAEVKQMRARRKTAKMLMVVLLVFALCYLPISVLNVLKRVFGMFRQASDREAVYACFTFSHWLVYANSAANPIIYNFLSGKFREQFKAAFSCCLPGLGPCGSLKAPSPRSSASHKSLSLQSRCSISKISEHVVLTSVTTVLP

Aspergillus fumigatus = experiment: Antifungal activity against Aspergillus fumigatus assessed as inhibition of fungal growth; type: functional
Orexin receptor type 2 = molecular target: T2, Orexin receptor type 2 (Homo sapiens, UniProt O43614); experiment: Antagonist activity at human OX2R by FLIPR assay
T2 sequence (O43614 whole entry): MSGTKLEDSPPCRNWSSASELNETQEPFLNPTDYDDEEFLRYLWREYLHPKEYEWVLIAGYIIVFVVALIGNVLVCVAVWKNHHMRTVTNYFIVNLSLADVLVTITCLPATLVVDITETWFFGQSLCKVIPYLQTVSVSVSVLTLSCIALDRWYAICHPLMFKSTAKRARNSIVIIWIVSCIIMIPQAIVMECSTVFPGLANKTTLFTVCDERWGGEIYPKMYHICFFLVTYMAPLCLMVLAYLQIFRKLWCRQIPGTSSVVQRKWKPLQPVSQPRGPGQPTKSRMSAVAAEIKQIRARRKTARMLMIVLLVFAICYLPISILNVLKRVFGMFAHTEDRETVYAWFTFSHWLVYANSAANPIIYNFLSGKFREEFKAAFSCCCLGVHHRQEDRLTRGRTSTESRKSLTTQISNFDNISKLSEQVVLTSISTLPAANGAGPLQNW

[11] = molecular target: cAMP-dependent protein kinase (PKA) (Homo sapiens, UniProt P22694+P17612+P22612); experiment: Inhibition of PKA (unknown origin); type: protein assay
[12] = molecular target: Platelet-derived growth factor receptor beta (Mus musculus, UniProt P05622); experiment: Inhibition of PDGFR phosphorylation in BALB/c mouse 3T3 by Western blot analysis; type: cell-based
Chain of Platelet-derived growth factor receptor beta (P05622 whole entry): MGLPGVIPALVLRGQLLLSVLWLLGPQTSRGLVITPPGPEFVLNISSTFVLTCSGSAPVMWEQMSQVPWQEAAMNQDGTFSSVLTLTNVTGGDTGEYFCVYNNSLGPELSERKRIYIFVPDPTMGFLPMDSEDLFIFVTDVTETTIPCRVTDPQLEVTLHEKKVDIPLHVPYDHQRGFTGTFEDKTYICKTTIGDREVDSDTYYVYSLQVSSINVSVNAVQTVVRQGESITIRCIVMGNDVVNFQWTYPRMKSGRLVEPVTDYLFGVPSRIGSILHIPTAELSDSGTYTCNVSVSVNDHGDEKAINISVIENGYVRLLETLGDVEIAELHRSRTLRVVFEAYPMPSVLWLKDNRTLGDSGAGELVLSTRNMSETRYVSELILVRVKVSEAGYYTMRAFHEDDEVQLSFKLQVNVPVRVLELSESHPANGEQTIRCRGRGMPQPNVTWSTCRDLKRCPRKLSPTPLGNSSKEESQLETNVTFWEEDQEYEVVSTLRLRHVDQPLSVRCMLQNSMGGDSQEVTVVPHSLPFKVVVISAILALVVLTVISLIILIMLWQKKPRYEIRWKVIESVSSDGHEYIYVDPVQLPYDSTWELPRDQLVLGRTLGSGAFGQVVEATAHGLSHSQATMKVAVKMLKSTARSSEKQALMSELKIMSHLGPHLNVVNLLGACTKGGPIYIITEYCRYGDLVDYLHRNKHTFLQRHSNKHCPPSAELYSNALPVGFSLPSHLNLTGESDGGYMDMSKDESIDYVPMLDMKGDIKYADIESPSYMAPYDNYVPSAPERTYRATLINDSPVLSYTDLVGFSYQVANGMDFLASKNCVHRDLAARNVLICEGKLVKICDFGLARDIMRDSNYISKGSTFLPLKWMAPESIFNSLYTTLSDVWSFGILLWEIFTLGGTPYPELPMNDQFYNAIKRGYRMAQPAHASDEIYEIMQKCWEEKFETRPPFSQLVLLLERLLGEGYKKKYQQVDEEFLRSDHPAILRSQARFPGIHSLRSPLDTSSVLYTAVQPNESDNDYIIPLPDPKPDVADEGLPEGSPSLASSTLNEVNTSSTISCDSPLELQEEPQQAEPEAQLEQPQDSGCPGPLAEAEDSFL

Protein kinase C (PKC) = experiment: Inhibition of PKC (unknown origin); type: protein assay, Homo sapiens
BCR/ABL1 = BCR/ABL1 (Mus musculus, UniProt P00520); experiment: Inhibition of Bcr-Abl phosphorylation in BALB/c mouse 3T3 by Western blot analysis; type: cell-based
Chain of BCR/ABL1 (P00520 whole entry): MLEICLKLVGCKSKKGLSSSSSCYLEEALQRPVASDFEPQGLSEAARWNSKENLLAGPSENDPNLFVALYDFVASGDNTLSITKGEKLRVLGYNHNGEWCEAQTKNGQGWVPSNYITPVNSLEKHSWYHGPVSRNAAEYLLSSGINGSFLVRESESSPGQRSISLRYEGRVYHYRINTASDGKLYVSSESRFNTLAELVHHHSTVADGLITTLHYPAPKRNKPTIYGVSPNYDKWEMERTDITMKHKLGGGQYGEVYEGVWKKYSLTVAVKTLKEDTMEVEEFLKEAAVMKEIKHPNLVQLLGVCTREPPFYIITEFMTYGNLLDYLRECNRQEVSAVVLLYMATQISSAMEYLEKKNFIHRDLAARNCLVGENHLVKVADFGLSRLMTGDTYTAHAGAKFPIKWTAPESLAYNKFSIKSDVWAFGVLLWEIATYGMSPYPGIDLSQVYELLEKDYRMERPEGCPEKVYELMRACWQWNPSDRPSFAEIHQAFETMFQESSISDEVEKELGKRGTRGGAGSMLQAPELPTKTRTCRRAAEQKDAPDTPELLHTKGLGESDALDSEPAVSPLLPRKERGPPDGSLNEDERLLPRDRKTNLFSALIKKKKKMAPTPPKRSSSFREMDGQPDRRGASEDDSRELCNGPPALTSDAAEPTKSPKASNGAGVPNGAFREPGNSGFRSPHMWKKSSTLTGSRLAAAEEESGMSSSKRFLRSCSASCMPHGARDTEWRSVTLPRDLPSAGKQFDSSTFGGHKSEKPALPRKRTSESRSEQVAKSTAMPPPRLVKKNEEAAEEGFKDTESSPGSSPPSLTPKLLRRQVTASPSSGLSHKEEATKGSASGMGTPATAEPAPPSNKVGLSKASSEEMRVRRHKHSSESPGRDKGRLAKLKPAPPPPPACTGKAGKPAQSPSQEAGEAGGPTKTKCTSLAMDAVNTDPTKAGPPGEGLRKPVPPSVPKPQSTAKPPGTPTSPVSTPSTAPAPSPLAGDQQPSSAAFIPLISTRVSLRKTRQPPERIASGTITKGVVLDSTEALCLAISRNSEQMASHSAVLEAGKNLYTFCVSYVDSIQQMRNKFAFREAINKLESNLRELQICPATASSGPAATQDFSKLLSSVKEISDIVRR
Chain of BCR/ABL1 (Q6PAJ1 whole entry, further chain): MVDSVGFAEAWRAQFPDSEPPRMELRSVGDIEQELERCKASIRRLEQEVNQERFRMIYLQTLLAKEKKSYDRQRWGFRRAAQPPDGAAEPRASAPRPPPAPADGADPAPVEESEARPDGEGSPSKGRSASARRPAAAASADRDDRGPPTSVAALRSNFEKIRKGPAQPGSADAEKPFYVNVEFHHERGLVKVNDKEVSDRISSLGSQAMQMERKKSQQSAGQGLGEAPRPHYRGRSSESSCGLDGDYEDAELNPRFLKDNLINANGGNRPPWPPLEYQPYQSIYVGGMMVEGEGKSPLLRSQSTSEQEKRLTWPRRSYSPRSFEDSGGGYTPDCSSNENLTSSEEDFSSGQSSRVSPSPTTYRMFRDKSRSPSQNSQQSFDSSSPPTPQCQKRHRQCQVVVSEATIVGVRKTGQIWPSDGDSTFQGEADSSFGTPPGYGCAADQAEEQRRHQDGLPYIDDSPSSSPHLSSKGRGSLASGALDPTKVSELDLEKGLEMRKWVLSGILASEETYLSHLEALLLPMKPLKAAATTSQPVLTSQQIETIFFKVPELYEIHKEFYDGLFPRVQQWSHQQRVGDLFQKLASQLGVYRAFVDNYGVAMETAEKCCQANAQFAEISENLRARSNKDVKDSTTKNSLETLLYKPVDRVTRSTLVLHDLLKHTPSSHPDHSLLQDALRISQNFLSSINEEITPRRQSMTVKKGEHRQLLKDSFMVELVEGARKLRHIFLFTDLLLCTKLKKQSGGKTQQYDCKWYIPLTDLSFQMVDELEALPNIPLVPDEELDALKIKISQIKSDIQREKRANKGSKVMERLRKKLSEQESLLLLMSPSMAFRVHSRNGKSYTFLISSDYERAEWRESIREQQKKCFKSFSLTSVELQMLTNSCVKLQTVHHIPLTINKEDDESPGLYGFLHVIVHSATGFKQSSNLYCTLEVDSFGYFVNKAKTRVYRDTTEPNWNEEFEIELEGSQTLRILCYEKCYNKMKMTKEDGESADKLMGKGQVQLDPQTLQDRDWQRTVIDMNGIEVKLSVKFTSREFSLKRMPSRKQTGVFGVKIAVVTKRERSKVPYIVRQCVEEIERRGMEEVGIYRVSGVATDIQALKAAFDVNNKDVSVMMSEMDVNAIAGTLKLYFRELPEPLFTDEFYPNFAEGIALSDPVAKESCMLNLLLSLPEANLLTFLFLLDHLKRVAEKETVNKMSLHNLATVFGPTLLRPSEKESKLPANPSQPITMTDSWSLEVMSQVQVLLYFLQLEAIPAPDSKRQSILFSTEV

clinical = conditions: human, plasma, po, 100 mg
[13] = Half life in Sprague-Dawley rat plasma at 20 mg/kg, po; type: ADME, organism-based
[14] = Half life in rat plasma; type: ADME, cell-free
[15] = Oral bioavailability in Beagle dog at 0.5 mg/kg; type: ADME, organism-based, Canis lupus familiaris; conditions: in vivo
[16] = molecular target: T3, 3-hydroxy-3-methylglutaryl-coenzyme A reductase (Rattus norvegicus, UniProt P51639); experiment: Inhibition of rat liver HMG-CoA reductase pre incubated for 5 mins followed by substrate addition using NADPH as substrate by scintillation counter analysis; type: tissue-based
T3 sequence (P51639 whole entry): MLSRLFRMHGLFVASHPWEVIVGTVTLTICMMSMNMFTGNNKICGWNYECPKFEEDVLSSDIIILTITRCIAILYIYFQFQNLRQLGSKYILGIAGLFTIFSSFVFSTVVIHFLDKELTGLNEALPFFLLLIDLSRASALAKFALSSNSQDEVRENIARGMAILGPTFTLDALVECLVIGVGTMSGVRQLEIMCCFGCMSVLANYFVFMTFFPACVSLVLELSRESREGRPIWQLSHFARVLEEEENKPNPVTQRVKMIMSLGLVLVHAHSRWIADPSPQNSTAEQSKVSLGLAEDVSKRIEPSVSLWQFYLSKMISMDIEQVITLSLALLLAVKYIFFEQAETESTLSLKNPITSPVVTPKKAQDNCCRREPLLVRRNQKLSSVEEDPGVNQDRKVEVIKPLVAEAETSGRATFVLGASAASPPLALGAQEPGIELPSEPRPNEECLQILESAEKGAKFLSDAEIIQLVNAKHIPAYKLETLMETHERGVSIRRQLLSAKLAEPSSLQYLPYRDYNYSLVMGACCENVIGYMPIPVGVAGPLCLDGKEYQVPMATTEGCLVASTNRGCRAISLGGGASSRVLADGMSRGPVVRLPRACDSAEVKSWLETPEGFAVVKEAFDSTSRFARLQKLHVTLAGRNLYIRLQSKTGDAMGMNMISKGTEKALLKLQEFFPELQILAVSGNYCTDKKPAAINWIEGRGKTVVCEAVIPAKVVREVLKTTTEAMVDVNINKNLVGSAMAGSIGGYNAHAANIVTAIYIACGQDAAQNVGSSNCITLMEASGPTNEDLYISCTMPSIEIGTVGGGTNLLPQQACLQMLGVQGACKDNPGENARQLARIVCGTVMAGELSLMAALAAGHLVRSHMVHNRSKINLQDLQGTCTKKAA

## CC(c1ccncc1)n1[nH]c(=O)c2[nH]c3cc(Cl)ccc3c(=O)c2c1=O (configuration not stated)
[1]
  bioavailability: 30%
[2]
  solubility: > 290 µg/mL

## O=c1[nH]n(Cc2ccncc2)c(=O)c2c(=O)c3ccc(Cl)cc3[nH]c12
[3]
  Papp A→B: 0.2 ×10⁻⁶ cm/s

## O=c1[nH]nc(CN2CCO[C@H](OCc3cc(C(F)(F)F)cc(C(F)(F)F)c3)[C@@H]2c2ccc(F)cc2)[nH]1
[4]
  half-life: 3 h
[5]
  half-life: 3 h
[6]
  half-life: 9 h
[7]
  half-life: 3 h

## CC(=O)[C@H]1CCC2C3CC[C@H]4C[C@](C)(O)CC[C@]4(C)C3CC[C@@]21C (some centres not stated)
[8]
  IC50: 80 nM

## Cc1ccc(-n2nccn2)c(C(=O)N2C[C@H](COc3ccc(F)cn3)CC[C@H]2C)c1
[9]
  bioavailability: < 10%
[2]
  solubility: < 24 µM

## COc1cccc(OC)c1C(=O)N1CCCN(c2nc3ccc(Cl)cc3s2)CC1
[10]
  Ki: 150 nM

## CC(=O)[C@H]1CCC2C3CC[C@H]4C[C@H](O)CC[C@]4(C)C3CC[C@@]21C (some centres not stated)
[8]
  IC50: 51 nM

## OC(Cn1cncn1)(Cn1cncn1)c1ccc(F)cc1
Aspergillus fumigatus
  MIC: > 50 µg/mL

## Cc1ccc(-n2nccn2)c(C(=O)N2CCC[C@@H](COc3ccc(F)cn3)C2)c1
Orexin receptor type 2
  Ki: 29 nM
[10]
  Ki: 96 nM

## CN1CCN(Cc2ccc(C(=O)Nc3cccc(Nc4nccc(-c5cccnc5)n4)c3)cc2)CC1
[11]
  IC50: > 100000 nM
[12]
  IC50: 200 nM
Protein kinase C (PKC)
  IC50: > 100000 nM
BCR/ABL1
  IC50: 100 nM

## Cc1ccc(-c2cc(C(F)(F)F)nn2-c2ccc(S(N)(=O)=O)cc2)cc1 [CELECOXIB]
clinical
  half-life: 12 h
[13]
  half-life: 3.5 h

## Cc1ccc(-c2ncc(Cl)cc2-c2ccc(S(C)(=O)=O)cc2)cn1 [ETORICOXIB]
[14]
  half-life: 2 h

## Cc1ccc(-c2ncccn2)c(C(=O)N2C[C@H](COc3ccc(F)cn3)CC[C@H]2C)c1 [FILOREXANT]
[9]
  bioavailability: 25%
[15]
  bioavailability: 26%
[2]
  solubility: 192 µM

## Cc1ccc(NC(=O)c2ccc(CN3CCN(C)CC3)cc2)cc1Nc1nccc(-c2cccnc2)n1 [IMATINIB]
[12]
  IC50: 50 nM

## CC[C@H](C)C(=O)O[C@H]1C[C@@H](C)C=C2C=C[C@H](C)[C@H](CC[C@@H]3C[C@@H](O)CC(=O)O3)[C@H]21 [LOVASTATIN]
[16]
  IC50: 2.2 nM

— ChEMBL document CHEMBL5244220, “Methyl-containing pharmaceuticals: Methylation in drug design” (Bioorg Med Chem Lett, 2018)
